What was measured:
Type in all cases: cell-based
[1] = tested on: human rhabdosarcoma cells; assay: Recoding via quantification of pRB and P53, rhabdosarcoma cells; details: Table 6, peptide in association with PET
Method: (§1) The cells were first fixed for 20 min with 4% paraformaldehyde/PBS at 4° C. After fixation, the cells were permeabilized in PBS containing 1% Triton X-100 for 15 min. Protein immunofluorescent visualization was performed by first treating the cells with 1% (v/v) specific monoclonal antibodies for 1 hour at 37° C. Then the samples were incubated with Alexa Fluor® 568 or 647 (F(ab′)2 fragment of IgG(H+L)) during 30 min at room temperature. The cell nuclei were counterstained in 20 ng/mL DAPI for 10 min at room temperature.
(§2) For this type of quantification the freeware image analysis ImageJ® software was used. The raw image was first converted to an 8-bit file, and then the unsharp mask feature was used (settings 1:0.2) to remove the image background (rolling ball radius 10). After smoothing, the resulting image, which appears similar to the original photomicrograph but with minimal background, was then converted to a binary image by setting a threshold. Threshold values were determined empirically by selecting a setting, which gave the most accurate binary image for a subset of randomly selected photomicrographs. The cell area was determined by manual delineation on raw fluorescent images. Total contact area and mean contact area per cell were calculated by “analyse particules” in ImageJ®. A minimum of 50 cells per condition were analyzed. […]

[2] = tested on: human adenocarcinoma cells; assay: Recoding via quantification of pRB and P53, adenocarcinoma cells; details: Table 6, peptide in association with PET
Method: as §1, §2

[3] = tested on: mesenchymal chondrosarcoma cells; assay: Recoding via quantification of pRB and P53, chondrosarcoma cells; details: Table 6, peptide in association with PET
Method: as §1, §2

[4] = tested on: Cyclin D (Cyclin D1, Cyclin D2 and Cyclin D3); assay: Cyclin D profile by RT-PCR in osteosarcoma cells; details: PET carrier, after the first 30 min of cell culture
Text: There are many ways to test, measure and represent the inhibitory effect of a given substance on the gene or protein expression of cyclins D, but for the purpose of the present disclosure, and for the avoidance of any doubts, the inhibition values of a given pharmaceutical association or composition as defined herein is a measure of the gene expression of cyclins D as provided by RT-PCR. It is to be understood that the values of the gene expression of cyclins D disclosed herein correspond to the total gene expression of all cyclins D present in the tested cell i.e. D1, D2 and D3 as known at the date of the present disclosure.
(§3) After 24 hours of culture, total RNA was extracted by using the RNeasy total RNA kit (Qiagen®) according to the manufacturer's instructions. Purified total RNA was used as a template in order to make cDNA by a reverse transcription reaction (Gibco Brl®) with random primers (Invitrogen®). The cDNA was then used as a template for a real-time PCR amplification in the presence of SYBR green reagents (Bio-Rad®) by using a thermocycler (iCycler, Biorad®). Data were analyzed with the iCycler IQ™® software and compared by the ΔΔCt method. Briefly, the mean Ct value of the target gene was normalized to its averaged Ct values of the housekeeping gene (GAPDH) to give a ΔCt value, which was then normalized to a control sample to obtain a ΔΔCt value. The results were obtained from two series of experiments performed in triplicate.
Neoplastic cells (in this example osteosarcoma cells) were cultured on pharmaceutical associations comprising PET as a bioactive carrier and one of GFR-binding compounds of SEQ ID NO: 12, 19, 30 or 39. […]

Vinculin = Vinculin gene expression by RT-PCR in osteosarcoma cells; details: PET carrier, after 24 hours
Method: as §3
(§4) Neoplastic cells (in this example osteosarcoma cells) were cultured on pharmaceutical associations comprising PET as a bioactive carrier and one of GFR-binding compounds of SEQ ID NO: 12, 19, 30 or 39. After 24 hours, the Paxillin and Vinculin gene expression decreased as shown by RT-PCR (FIG. 9).

Paxillin = Paxillin gene expression by RT-PCR in osteosarcoma cells; details: PET carrier, after 24 hours
Method: as §3, §4

[5] = Adhesion checkpoint activation, western blot of PDK1 in osteosarcoma cells; details: PET carrier, after 24 hours
Method: (§5) After 24 hours of culture, cells were permeabilized (10% SDS, 25 mM NaCl, 10 nM pepstatin and 10 nM leupeptin in distilled water and loading buffer), boiled for 10 minutes and resolved by reducing PAGE (Invitrogen). Proteins were transferred onto nitrocellulose, blocked, and labeled with HRP-conjugated antibodies (Invitrogen). […] Phosphor-Smad1/5/8 was blotted by treating the nitrocellulose with monoclonal anti-p-Smad1/5/8 (Santa Cruz Biotechnology). For all of the experiments the western blot was performed in triplicate, along with an additional blot for actin and coomassie blue staining to ensure constant protein load among samples.
(§6) Neoplastic cells (in this example osteosarcoma cells) were cultured on pharmaceutical associations comprising PET as a bioactive carrier and one of GFR-binding compounds of SEQ ID NO: 12, 19, 30 or 39. The main signaling pathways include: Ras/MAP kinase, FAK/Src kinase and PIP2 which are decreased after 24 hours as shown by western blot quantifications (FIG. 8). […] Finally, a decrease of 3-phosphoinositide-dependent protein kinase 1 (PDK1) protein expression was also was observed (FIG. 8C).

Ras/MAP kinase = assay: Adhesion checkpoint activation, western blot of ERK phosphorylation in osteosarcoma cells; details: PET carrier, after 24 hours
Method: as §5, §6

AASKASSSRVELRSVKIAKV (Non-cyclic GFR-binding peptide) [SEQ ID NO: 210]
P53 (%) [1]: 42%
pRB (%) [1]: 22%

AASKASSSRVKMSPINVLYF (Non-cyclic GFR-binding peptide) [SEQ ID NO: 225]
P53 (%) [2]: 25%
pRB (%) [2]: 12%

AASKASSTPTDLNAISTLYF (Non-cyclic GFR-binding peptide) [SEQ ID NO: 216]
P53 (%) [1]: 27%
pRB (%) [1]: 19%

AASKASSVPEKMRPVQTRKI (Non-cyclic GFR-binding peptide) [SEQ ID NO: 237]
P53 (%) [2]: 42%
pRB (%) [2]: 22%

AASKASSVPQRLRSVKVAKV (Non-cyclic GFR-binding peptide) [SEQ ID NO: 235]
P53 (%) [2]: 40%
pRB (%) [2]: 26%

GIPEPSSAPTRLEPISMLYL (Non-cyclic GFR-binding peptide) [SEQ ID NO: 222]
P53 (%) [3]: 36%
pRB (%) [3]: 8%

GIPEPSSAPVDMRPVQIRKI (Non-cyclic GFR-binding peptide) [SEQ ID NO: 238]
P53 (%) [2]: 40%
pRB (%) [2]: 23%

GIPEPSSAPVEEEPLTTLYY (Non-cyclic GFR-binding peptide) [SEQ ID NO: 232]
P53 (%) [2]: 21%
pRB (%) [2]: 13%

GIPEPSSAPVGQEPLPMVYY (Non-cyclic GFR-binding peptide) [SEQ ID NO: 230]
P53 (%) [2]: 30%
pRB (%) [2]: 19%

GIPEPSSVSQEESSLSTLFF (Non-cyclic GFR-binding peptide) [SEQ ID NO: 214]
P53 (%) [1]: 31%
pRB (%) [1]: 18%

GIPEPSSVSQELSATSMLYY (Non-cyclic GFR-binding peptide) [SEQ ID NO: 218]
P53 (%) [3]: 28%
pRB (%) [3]: 17%

KIPKASSSRVRLSSLSTLFF (Non-cyclic GFR-binding peptide) [SEQ ID NO: 215]
P53 (%) [1]: 30%
pRB (%) [1]: 19%

KIPKASSTPTRLSPISMLFI (Non-cyclic GFR-binding peptide) [SEQ ID NO: 221]
P53 (%) [3]: 37%
pRB (%) [3]: 21%

KIPKASSTQVGQSATSILYY (Non-cyclic GFR-binding peptide) [SEQ ID NO: 219]
P53 (%) [3]: 31%
pRB (%) [3]: 14%

KIPKASSTQVRLRPVQIRKI (Non-cyclic GFR-binding peptide) [SEQ ID NO: 211]
P53 (%) [1]: 42%
pRB (%) [1]: 19%

KIPKASSTQVRLRSVKTAKV (Non-cyclic GFR-binding peptide) [SEQ ID NO: 236]
P53 (%) [2]: 37%
pRB (%) [2]: 25%

KIPKASSVPAQLEPLPIVYY (Non-cyclic GFR-binding peptide) [SEQ ID NO: 229]
P53 (%) [2]: 31%
pRB (%) [2]: 23%

KIPKASSVPTKMKPLSVLYV (Non-cyclic GFR-binding peptide) [SEQ ID NO: 226]
P53 (%) [2]: 31%
pRB (%) [2]: 16%

KIPKASSVSQQLEPISTLYL (Non-cyclic GFR-binding peptide) [SEQ ID NO: 223]
P53 (%) [3]: 29%
pRB (%) [3]: 9%

RVPSTSSAPTKMKPLSMLYV (Non-cyclic GFR-binding peptide) [SEQ ID NO: 227]
P53 (%) [2]: 32%
pRB (%) [2]: 14%

RVPSTSSTQVDLNAISVLYF (Non-cyclic GFR-binding peptide) [SEQ ID NO: 217]
P53 (%) [1]: 24%
pRB (%) [1]: 18%

RVPSTSSTQVKMSAISMLYL (Non-cyclic GFR-binding peptide) [SEQ ID NO: 213]
P53 (%) [1]: 26%
pRB (%) [1]: 12%

RVPSTSSVPAEESNITVQIM (Non-cyclic GFR-binding peptide) [SEQ ID NO: 234]
P53 (%) [2]: 45%
pRB (%) [2]: 22%

RVPSTSSVPEKMEPLTMLYY (Non-cyclic GFR-binding peptide) [SEQ ID NO: 231]
P53 (%) [2]: 22%
pRB (%) [2]: 18%

SEQ ID NO: 12: GFR-binding compound of the sequence listing, tested on PET as bioactive carrier; sequence not shown in this part (KVPKASSVPTELSAISTLYL; Non-cyclic GFR-binding peptide)
Cyclin D gene expression (arithmetic mean of Cyclin D1, D2 and D3) [4]: decreased
Vinculin gene expression (Vinculin): decreased
Paxillin gene expression (Paxillin): decreased
3-phosphoinositide-dependent protein kinase 1 (PDK1) protein expression [5]: decrease
phosphorylation at Thr202 and Tyr204 on ERK (Ras/MAP kinase): absence of phosphorylation

SEQ ID NO: 19: GFR-binding compound of the sequence listing, tested on PET as bioactive carrier; sequence not shown in this part (RKIPKAGGVPTELSAISTLYL; Non-cyclic GFR-binding peptide)
Cyclin D gene expression (arithmetic mean of Cyclin D1, D2 and D3) [4]: decreased
Vinculin gene expression (Vinculin): decreased
Paxillin gene expression (Paxillin): decreased
3-phosphoinositide-dependent protein kinase 1 (PDK1) protein expression [5]: decrease
phosphorylation at Thr202 and Tyr204 on ERK (Ras/MAP kinase): absence of phosphorylation

SEQ ID NO: 30: GFR-binding compound of the sequence listing, tested on PET as bioactive carrier; sequence not shown in this part (KIPKASSVPTELEPLPIVYY; Non-cyclic GFR-binding peptide)
Cyclin D gene expression (arithmetic mean of Cyclin D1, D2 and D3) [4]: decreased
Vinculin gene expression (Vinculin): decreased
Paxillin gene expression (Paxillin): decreased
3-phosphoinositide-dependent protein kinase 1 (PDK1) protein expression [5]: decrease
phosphorylation at Thr202 and Tyr204 on ERK (Ras/MAP kinase): absence of phosphorylation

SEQ ID NO: 39: GFR-binding compound of the sequence listing, tested on PET as bioactive carrier; sequence not shown in this part (KIPKASSVPTELEPLPILYF; Non-cyclic GFR-binding peptide)
Cyclin D gene expression (arithmetic mean of Cyclin D1, D2 and D3) [4]: decreased
Vinculin gene expression (Vinculin): decreased
Paxillin gene expression (Paxillin): decreased
3-phosphoinositide-dependent protein kinase 1 (PDK1) protein expression [5]: decrease
phosphorylation at Thr202 and Tyr204 on ERK (Ras/MAP kinase): absence of phosphorylation

STPPTSSAPVGQSPISMLYI (Non-cyclic GFR-binding peptide) [SEQ ID NO: 220]
P53 (%) [3]: 34%
pRB (%) [3]: 15%

STPPTSSSRVQLSAISMLYL (Non-cyclic GFR-binding peptide) [SEQ ID NO: 212]
P53 (%) [1]: 27%
pRB (%) [1]: 11%

STPPTSSTPTKMSNITTQIM (Non-cyclic GFR-binding peptide) [SEQ ID NO: 233]
P53 (%) [2]: 43%
pRB (%) [2]: 23%

STPPTSSVPTEVSPINTLYF (Non-cyclic GFR-binding peptide) [SEQ ID NO: 224]
P53 (%) [3]: 26%
pRB (%) [3]: 13%

STPPTSSVSQKMKPLSILYV (Non-cyclic GFR-binding peptide) [SEQ ID NO: 228]
P53 (%) [2]: 26%
pRB (%) [2]: 18%
